According to ChEMBL document CHEMBL4804281, “STK4 inhibitors for treatment of hematologic malignancies” (2020):
Calls of active or inactive are those of the source. The rule behind the calls is not given here.

Legend:
[1] = biological target: T1, Serine/threonine-protein kinase 4 (Homo sapiens) (UniProt Q13043); experiment: Inhibition of STK4 (unknown origin) using fluorescein-labelled Ser/Thr-07 peptide as substrate incubated for 1 hr in presence of ATP at Km concentration by Z-LYTE assay
T1 sequence (whole entry): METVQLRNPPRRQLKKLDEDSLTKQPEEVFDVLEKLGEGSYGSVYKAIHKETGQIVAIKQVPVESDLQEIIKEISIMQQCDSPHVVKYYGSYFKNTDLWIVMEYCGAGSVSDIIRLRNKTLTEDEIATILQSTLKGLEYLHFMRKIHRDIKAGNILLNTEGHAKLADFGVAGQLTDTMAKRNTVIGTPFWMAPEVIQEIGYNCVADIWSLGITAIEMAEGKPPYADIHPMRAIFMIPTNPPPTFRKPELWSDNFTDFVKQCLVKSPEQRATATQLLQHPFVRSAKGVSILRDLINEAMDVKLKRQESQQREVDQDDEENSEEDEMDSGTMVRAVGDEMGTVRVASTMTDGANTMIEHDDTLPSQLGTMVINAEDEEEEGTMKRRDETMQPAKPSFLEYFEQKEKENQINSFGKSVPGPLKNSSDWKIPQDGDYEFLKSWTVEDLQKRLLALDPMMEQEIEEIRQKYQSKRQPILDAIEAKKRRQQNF

[2] = tested on: MM1.S; experiment: Upregulation of YAP1 protein level in human MM1.S cells at 1 uM measured after 16 hrs by Western blot analysis; type: functional, cell-based
[3] = biological target: T2, Serine/threonine-protein kinase 3 (Homo sapiens) (UniProt Q13188); experiment: Inhibition of STK3 (unknown origin) using fluorescein-labelled Ser/Thr-07 peptide as substrate incubated for 1 hr in presence of ATP at Km concentration by Z-LYTE assay
T2 sequence (whole entry): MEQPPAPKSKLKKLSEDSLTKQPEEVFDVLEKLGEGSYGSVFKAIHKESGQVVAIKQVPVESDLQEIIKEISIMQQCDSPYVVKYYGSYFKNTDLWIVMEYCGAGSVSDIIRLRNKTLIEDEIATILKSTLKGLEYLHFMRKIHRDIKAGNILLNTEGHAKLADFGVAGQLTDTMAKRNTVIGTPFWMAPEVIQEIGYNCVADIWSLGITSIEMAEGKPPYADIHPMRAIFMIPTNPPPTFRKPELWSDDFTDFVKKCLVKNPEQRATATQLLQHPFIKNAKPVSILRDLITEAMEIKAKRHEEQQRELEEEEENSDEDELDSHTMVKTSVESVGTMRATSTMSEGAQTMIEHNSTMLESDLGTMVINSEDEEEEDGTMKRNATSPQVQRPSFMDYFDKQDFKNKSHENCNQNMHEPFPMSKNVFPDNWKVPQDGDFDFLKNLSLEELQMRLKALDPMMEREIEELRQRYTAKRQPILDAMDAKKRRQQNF

[4] = biological target: Serine/threonine-protein kinase 24 (Homo sapiens) (UniProt Q9Y6E0); experiment: Inhibition of STK24 (unknown origin) using fluorescein-labelled Ser/Thr-07 peptide as substrate incubated for 1 hr in presence of ATP at Km concentration by Z-LYTE assay
Sequence of Serine/threonine-protein kinase 24 (Homo sapiens) (Q9Y6E0 whole entry, looked up): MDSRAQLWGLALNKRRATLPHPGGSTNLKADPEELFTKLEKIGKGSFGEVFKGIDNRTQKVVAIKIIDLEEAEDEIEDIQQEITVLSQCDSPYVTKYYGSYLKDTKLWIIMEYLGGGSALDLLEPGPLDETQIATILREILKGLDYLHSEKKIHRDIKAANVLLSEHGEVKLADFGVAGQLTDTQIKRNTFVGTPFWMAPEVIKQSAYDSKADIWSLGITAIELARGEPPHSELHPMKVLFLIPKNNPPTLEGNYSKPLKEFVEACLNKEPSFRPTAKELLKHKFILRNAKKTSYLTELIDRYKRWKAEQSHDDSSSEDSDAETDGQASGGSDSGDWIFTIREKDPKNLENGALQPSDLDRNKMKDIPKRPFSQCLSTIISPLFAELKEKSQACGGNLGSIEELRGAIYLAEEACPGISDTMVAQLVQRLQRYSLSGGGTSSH

[5] = tested on: MM1.S; experiment: Downregulation of phosphorylated-MOB1 protein level in human MM1.S cells at 1 to 10 uM measured after 6 hrs by Western blot analysis; type: functional, cell-based; conditions: dose 1-10 µM
[6] = tested on: NCI-H929; experiment: Upregulation of YAP1 protein level in human NCI-H929 cells at 1 to 10 uM measured after 16 hrs by Western blot analysis; type: functional, cell-based; conditions: dose 1-10 µM
[7] = tested on: MM1.S; experiment: Upregulation of YAP1 protein level in human MM1.S cells at 1 to 10 uM measured after 16 hrs by Western blot analysis; type: functional, cell-based; conditions: dose 1-10 µM
[8] = biological target: Serine/threonine-protein kinase 26 (Homo sapiens) (UniProt Q9P289); experiment: Inhibition of MST4 (unknown origin) using fluorescein-labelled Ser/Thr-07 peptide as substrate incubated for 1 hr in presence of ATP at Km concentration by Z-LYTE assay
Sequence of Serine/threonine-protein kinase 26 (Homo sapiens) (Q9P289 2-416 limits assumed): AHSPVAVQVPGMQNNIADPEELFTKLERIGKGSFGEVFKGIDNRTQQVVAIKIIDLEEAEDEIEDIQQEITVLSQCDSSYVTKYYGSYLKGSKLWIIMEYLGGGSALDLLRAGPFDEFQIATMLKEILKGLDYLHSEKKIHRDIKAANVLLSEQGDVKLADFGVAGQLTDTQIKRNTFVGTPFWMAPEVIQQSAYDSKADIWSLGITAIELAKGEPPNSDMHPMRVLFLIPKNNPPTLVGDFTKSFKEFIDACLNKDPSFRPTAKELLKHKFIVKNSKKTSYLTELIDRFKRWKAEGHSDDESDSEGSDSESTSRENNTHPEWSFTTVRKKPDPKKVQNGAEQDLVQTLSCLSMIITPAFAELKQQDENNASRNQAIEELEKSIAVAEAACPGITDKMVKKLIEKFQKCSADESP

[9] = biological target: Casein kinase I isoform gamma-3 (Homo sapiens) (UniProt Q9Y6M4); experiment: Inhibition of wild-type human full length CSNK1G3 (M1 to K447 residues) expressed in bacterial expression system by Kinomescan method
Sequence of Casein kinase I isoform gamma-3 (Homo sapiens) (Q9Y6M4 whole entry, looked up, the tested form may be a part, canonical isoform): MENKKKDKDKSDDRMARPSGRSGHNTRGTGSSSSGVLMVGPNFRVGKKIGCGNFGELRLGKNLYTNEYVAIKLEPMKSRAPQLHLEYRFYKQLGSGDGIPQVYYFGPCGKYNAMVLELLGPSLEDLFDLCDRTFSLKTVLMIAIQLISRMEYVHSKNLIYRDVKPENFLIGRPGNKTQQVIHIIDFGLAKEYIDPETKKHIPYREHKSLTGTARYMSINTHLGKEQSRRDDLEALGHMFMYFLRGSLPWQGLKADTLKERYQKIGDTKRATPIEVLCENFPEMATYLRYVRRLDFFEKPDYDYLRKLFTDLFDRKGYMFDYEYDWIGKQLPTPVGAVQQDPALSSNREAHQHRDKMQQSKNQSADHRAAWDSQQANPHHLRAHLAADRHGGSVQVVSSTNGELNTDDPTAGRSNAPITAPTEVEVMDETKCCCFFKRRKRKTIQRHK

[10] = biological target: Casein kinase I isoform epsilon (Homo sapiens) (UniProt P49674); experiment: Inhibition of wild-type human full length CSNK1E (M1 to K416 residues) expressed in bacterial expression system by Kinomescan method
Sequence of Casein kinase I isoform epsilon (Homo sapiens) (P49674 whole entry, looked up, the tested form may be a part, canonical isoform): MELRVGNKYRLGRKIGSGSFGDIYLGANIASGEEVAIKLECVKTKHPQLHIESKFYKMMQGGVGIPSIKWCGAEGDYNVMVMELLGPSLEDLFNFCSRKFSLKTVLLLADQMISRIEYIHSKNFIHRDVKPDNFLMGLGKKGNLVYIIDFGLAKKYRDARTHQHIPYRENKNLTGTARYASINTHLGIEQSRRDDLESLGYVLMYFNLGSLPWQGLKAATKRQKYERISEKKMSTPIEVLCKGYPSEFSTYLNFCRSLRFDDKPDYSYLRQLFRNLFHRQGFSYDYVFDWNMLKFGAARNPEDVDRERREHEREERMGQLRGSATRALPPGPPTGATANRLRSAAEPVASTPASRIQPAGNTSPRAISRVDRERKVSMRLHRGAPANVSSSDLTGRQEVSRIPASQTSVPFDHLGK

[11] = biological target: T2, Serine/threonine-protein kinase 3 (Homo sapiens); experiment: Inhibition of wild-type human partial length MST2 (D17 to E318 residues) expressed in bacterial expression system by Kinomescan method
[12] = biological target: Interleukin-1 receptor-associated kinase 1 (Homo sapiens) (UniProt P51617); experiment: Inhibition of wild-type human partial length IRAK1 (R194 to S712 residues) expressed in mammalian expression system by Kinomescan method
Sequence of Interleukin-1 receptor-associated kinase 1 (Homo sapiens) (P51617 whole entry, looked up, the tested form may be a part): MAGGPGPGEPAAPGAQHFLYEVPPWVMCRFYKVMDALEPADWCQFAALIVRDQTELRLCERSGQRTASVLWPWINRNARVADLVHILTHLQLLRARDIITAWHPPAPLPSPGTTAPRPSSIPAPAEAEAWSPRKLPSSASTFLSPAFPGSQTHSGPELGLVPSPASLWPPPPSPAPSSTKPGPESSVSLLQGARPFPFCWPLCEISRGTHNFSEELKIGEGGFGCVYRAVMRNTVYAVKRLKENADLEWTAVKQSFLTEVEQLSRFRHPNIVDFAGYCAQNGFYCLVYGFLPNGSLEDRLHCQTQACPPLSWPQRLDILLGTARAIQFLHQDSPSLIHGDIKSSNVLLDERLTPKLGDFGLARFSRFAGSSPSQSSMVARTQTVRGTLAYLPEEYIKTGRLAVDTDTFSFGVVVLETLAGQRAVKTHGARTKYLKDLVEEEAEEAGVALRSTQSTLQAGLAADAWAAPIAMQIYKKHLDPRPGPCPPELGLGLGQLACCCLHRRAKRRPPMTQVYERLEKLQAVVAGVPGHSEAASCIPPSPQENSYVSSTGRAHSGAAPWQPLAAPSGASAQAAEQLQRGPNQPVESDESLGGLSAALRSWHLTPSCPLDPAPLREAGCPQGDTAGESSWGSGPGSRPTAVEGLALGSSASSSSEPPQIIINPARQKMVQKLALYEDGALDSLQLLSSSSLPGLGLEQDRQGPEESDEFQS

[13] = tested on: NCI-H929; experiment: Upregulation of YAP1 protein level in human NCI-H929 cells at 3 to 10 uM measured after 72 hrs by Western blot analysis; type: functional, cell-based; conditions: dose 3-10 µM
[14] = tested on: MM1.S; experiment: Upregulation of YAP1 protein level in human MM1.S cells at 3 to 10 uM measured after 72 hrs by Western blot analysis; type: functional, cell-based; conditions: dose 3-10 µM

IC50 [1] [nM]	Compound	further results
< 40	C#Cc1ccc(-c2cnc(N)c(-c3ccc4c(c3)CCNC4=O)c2)c(OC)c1	–
< 40	CN1CCc2cc(-c3cc(-c4ccc(S(=O)(=O)N(C)C5CC5)cc4F)cnc3N)ccc2C1=O	–
40	Nc1ncc(-c2cc3scnc3cc2F)cc1-c1ccc2c(c1)CCNC2=O	–
200	Nc1ncc(-c2cncc3ncsc23)cc1-c1ccc2c(c1)CCNC2=O	–
40	Nc1ncc(-c2ccc([N+](=O)[O-])cc2F)cc1-c1ccc2c(c1)CCNC2=O	–
40	Nc1ncc(-c2ccc(NS(=O)(=O)C3CC3)cc2OCc2ccccc2)cc1-c1ccc2c(c1)CCNC2=O	–
40	Cc1cc(N2CCOCC2)cc2[nH]c(-c3c(NC[C@@H](O)c4cccc(Cl)c4)cc[nH]c3=O)nc12	Activity [2]: inactive
< 40	Nc1ncc(-c2cccc3sccc23)cc1-c1ccc2c(c1)CCNC2=O	–
200	Nc1ncc(-c2cccc(S(N)(=O)=O)c2)cc1-c1ccc2c(c1)CCNC2=O	–
40	Nc1ncc(-c2cccc3scnc23)cc1-c1ccc2c(c1)CCNC2=O	–
< 40	COc1cc(S(=O)(=O)N(C)C2CC2)ccc1-c1cnc(N)c(-c2ccc3c(c2)CCNC3=O)c1	IC50 [3]: < 40 nM; IC50 [4]: 40 nM
40	Nc1ncc(-c2cc([N+](=O)[O-])c(Cl)cc2F)cc1-c1ccc2c(c1)CCNC2=O	Activity [5]: Active; IC50 [3]: 40 nM
< 40	CN(C1CC1)S(=O)(=O)c1ccc(-c2cnc(N)c(-c3ccc4c(c3)CNC4=O)c2)c(F)c1	IC50 [3]: < 40 nM; IC50 [4]: > 900 nM
200	Nc1ncc(-c2cc([N+](=O)[O-])cnc2F)cc1-c1ccc2c(c1)CCNC2=O	–
> 900	Nc1ncc(-c2cc(F)ccc2[N+](=O)[O-])cc1-c1ccc2c(c1)CCNC2=O	–
< 40	CC(C)Oc1cc(S(=O)(=O)N(C)C2CC2)ccc1-c1cnc(N)c(-c2ccc3c(c2)CNC3=O)c1	–
40	Nc1ncc(-c2ccc3ncsc3c2)cc1-c1ccc2c(c1)CCNC2=O	–
40	Nc1ncc(-c2ccccc2F)cc1-c1ccc2c(c1)CCNC2=O	–
40	C#Cc1cc(F)c(-c2cnc(N)c(-c3ccc4c(c3)CCNC4=O)c2)cc1[N+](=O)[O-]	–
< 40	CC(C)Oc1cc(S(=O)(=O)N(C)C2CC2)ccc1-c1cnc(N)c(-c2ccc3c(c2)CCNC3=O)c1	–
40	Nc1ncc(-c2scnc2Cl)cc1-c1ccc2c(c1)CCNC2=O	IC50 [3]: 40 nM; IC50 [4]: > 900 nM
> 900	COc1ccncc1-c1cnc(N)c(-c2ccc3c(c2)CCNC3=O)c1	–
200	NC(=O)c1ccc(-c2cc(-c3cc([N+](=O)[O-])ccc3F)cnc2N)cc1	–
< 40	CN(C1CC1)S(=O)(=O)c1ccc(-c2cnc(N)c(-c3ccc4c(c3)CCNC4=O)c2)cc1	Activity [2]: Active
< 40	COc1cc(S(=O)(=O)NC2CC2)ccc1-c1cnc(N)c(-c2ccc3c(c2)CCNC3=O)c1	–
40	Nc1ncc(-c2cc([N+](=O)[O-])c(NCc3ccccc3)cc2F)cc1-c1ccc2c(c1)CCNC2=O	Activity [5]: Active
< 40	Nc1ncc(-c2ccc(F)c3ncsc23)cc1-c1ccc2c(c1)CCNC2=O	–

IC50 [1] [nM]	Compound	further results
40	Nc1ncc(-c2cc(-c3cccc4ncsc34)ccc2F)cc1-c1ccc2c(=O)[nH]cnc2c1	–
40	Nc1ncc(-c2cc([N+](=O)[O-])cc(F)c2F)cc1-c1ccc2c(c1)CCNC2=O	–
40	Nc1ncc(-c2cc(F)cc([N+](=O)[O-])c2)cc1-c1ccc2c(c1)CCNC2=O	–
> 900	CCNC(=O)c1ccc(F)c(-c2cnc(N)c(-c3ccc4c(c3)CCNC4=O)c2)c1	–
200	N#Cc1cc(-c2cc(-c3cc([N+](=O)[O-])ccc3F)cnc2N)ccc1O	–
40	N#Cc1cccc(-c2cnc(N)c(-c3ccc4c(c3)CCNC4=O)c2)c1	IC50 [3]: 40 nM; IC50 [4]: 200 nM
< 40	Nc1ncc(-c2cccc([N+](=O)[O-])c2)cc1-c1ccc2c(c1)CCNC2=O	–
< 40	Nc1ncc(-c2cc3c(cc2F)OCC(=O)N3)cc1-c1ccc2c(c1)CCNC2=O	Activity [5]: Active; IC50 [3]: 40 nM
40	COc1cc(S(=O)(=O)N(C)C2CCCCC2)ccc1-c1cnc(N)c(-c2ccc3c(c2)CCNC3=O)c1	–
40	Nc1ncc(-c2ccc(F)c3ncsc23)cc1-c1ccc2c(c1)CNC2=O	–
40	COc1cc(-c2nccs2)ccc1-c1cnc(N)c(-c2ccc3c(c2)CCNC3=O)c1	–
< 40	CCOc1cc(S(=O)(=O)N(C)C2CC2)ccc1-c1cnc(N)c(-c2ccc3c(c2)CCNC3=O)c1	–
< 40	Nc1ncc(-c2cc([N+](=O)[O-])ccc2F)cc1-c1ccc2c(c1)CCNC2=O	Activity [6]: Active; Activity [7]: Active; Activity [5]: Active; IC50 [8]: > 900 nM; IC50 [3]: 40 nM; IC50 [4]: > 900 nM; Kd [9]: 4.68 nM; Kd [10]: 201 nM; Kd [11]: 42.6 nM; Kd [12]: 110 nM
< 40	Nc1ncc(-c2cccc(-c3nccs3)c2)cc1-c1ccc2c(c1)CCNC2=O	–
40	Cn1cnc2c(-c3cnc(N)c(-c4ccc5c(c4)CCNC5=O)c3)cccc21	–
< 40	Nc1ncc(-c2ccc(NS(=O)(=O)C3CC3)cc2OC2CCCC2)cc1-c1ccc2c(c1)CCNC2=O	–
> 900	Nc1ncc(-c2cc([N+](=O)[O-])ccc2Cl)cc1-c1ccc2c(c1)CCNC2=O	–
< 40	Cc1cc(S(=O)(=O)N(C)C2CC2)ccc1-c1cnc(N)c(-c2ccc3c(c2)CCNC3=O)c1	–
< 40	CN(C1CC1)S(=O)(=O)c1ccc(-c2cnc(N)c(-c3ccc4c(=O)[nH]cnc4c3)c2)c(F)c1	–
< 40	Nc1ncc(-c2cccc(NS(=O)(=O)C3CC3)c2)cc1-c1ccc2c(c1)CCNC2=O	–
200	NC(=O)c1ccc(-c2cc(-c3cc([N+](=O)[O-])ccc3F)cnc2N)cc1Cl	–
40	CN1CCc2cc(-c3cc(-c4cccc5ncsc45)cnc3N)ccc2C1=O	–
40	COc1cc(S(=O)(=O)N(C)C2CCOCC2)ccc1-c1cnc(N)c(-c2ccc3c(c2)CCNC3=O)c1	–
40	Nc1ncc(-c2cccc(S(=O)(=O)NC3CC3)c2)cc1-c1ccc2c(c1)CCNC2=O	Activity [13]: Active; Activity [14]: Active; IC50 [3]: 40 nM; IC50 [4]: 200 nM
< 40	CC(C)Oc1cc(NS(=O)(=O)C2CC2)ccc1-c1cnc(N)c(-c2ccc3c(c2)CCNC3=O)c1	–
200	Nc1ncc(-c2cnccc2F)cc1-c1ccc2c(c1)CCNC2=O	–
